How the values were obtained:
Na,K-ATPase [1] = experiment: Inhibition of Na,K-ATPase activity in rat brain microsomal fraction (colorimetric inorganic phosphate); type: biochemical
Method: Assays for Digitalis-Like Activity: • The digitalis-like activity of each fraction obtained in the course of the purification was determined quantitatively using at least two of the following bioassays: • a. Inhibition of [^3H]-ouabain binding: • The binding of [^3H]-ouabain to rat brain synaptosomal fraction was carried out by a conventional filtration technique as previously described (Lichtstein D., et al., Life Sci. 38: 1261-1270 (1986)). In brief: The reaction mixture (500µl final volume) contained the following constituents (final concentrations): 50 mM Tris-HCI buffer (pH 7.4), 0.5 mM EDTA, 80 mM NaCI, 4 mM MgSO4, 2 mM ATP (Tris, vanadium-free) and 32 nM [^3H]-ouabain (19.5 Ci/mmol). Reactions were initiated by the addition of 200 µl of crude synaptosomal fraction resulting in a final protein concentration of 200 µg per reaction. Following incubation for 1 hr. at 37° C, the reactions were terminated by the addition of 3 ml cold (4°C) 50 mM Tris-HCI (pH 7.4) and filtered over Whatman GF/B filters. The filters were washed two times with 3 ml volumes of the same Tris buffer, dried and assayed for radioactivity in a Packard liquid scintillation counter at a counting efficiency of approximately 50%. Specific binding was calculated by subtracting the binding observed in the presence of 100 µM unlabeled ouabain from that observed in the absence of unlabeled ouabain. Specific binding represented 93% of the total binding under control conditions. • b. Inhibition of Na, K-ATPase activity: • Na,K-ATPase activity in rat brain microsomal fraction was determined as previously described (Lichtstein D., et al., Life Sci. 38: 1261-1270 (1986)). Enzyme activity was measured by the colorimetric determination of inorganic phosphate after the incubation of microsomes (200 µg protein per reaction) at 37 C in a solution (final volume 500 µl) containing (final concentrations) 34 mM Tris-HCI (pH 7.4), 100 mM NaCl, 20 mM KCI, 4 Mm MgC12 and 4 mM ATP (Tris, vanadium free). After preincubation for 10 min., the ATP was added to initiate the reaction. Reactions were terminated by the addition of 100 µl of 5% trichloroacetic acid and.the precipitate was removed by centrifugation. Na,K-independent ATPase activity was determined by omitting Na^+ and K^+ from the reaction mixture or by the addition of 1 mM ouabain to the complete assay mixture. • c. Inhibition of ^86Rb uptake to N1E115 cells: • Neuroblastoma N1E115 cells were grown in MEM (Modified Eagle's Medium) medium. Cells were removed from their growth flask by raising and lowering the medium with a pipette and centrifuged at 100 x g in a Sorval RC-5 centrifuge for 10 minutes. The pellet was resuspended in MEM. 86Rb-uptake was initiated by the addition of N1E115 cells to MEM which contained ^86Rb tracer (1 µCi). Uptake was terminated after 1 min. by the addition of 1.5 ml ice cold 125 mM MgC12 solution followed by 1 min. centrifugation in an Eppendorf centrifuge. The Eppendorf tube was cut and the pellet removed and transferred to a scintilation vial, to which 6 ml of Emulsifier Scintillator 299TM (Packard) were added and radioactivity was determined.

Na,K-ATPase [2] = experiment: Inhibition of [3H]-ouabain binding to rat brain synaptosomal fraction (filtration); conditions: Figure 10; result in words
Method: Assays for Digitalis-Like Activity: • The digitalis-like activity of each fraction obtained in the course of the purification was determined quantitatively using at least two of the following bioassays: • a. Inhibition of [^3H]-ouabain binding: • The binding of [^3H]-ouabain to rat brain synaptosomal fraction was carried out by a conventional filtration technique as previously described (Lichtstein D., et al., Life Sci. 38: 1261-1270 (1986)). In brief: The reaction mixture (500µl final volume) contained the following constituents (final concentrations): 50 mM Tris-HCI buffer (pH 7.4), 0.5 mM EDTA, 80 mM NaCI, 4 mM MgSO4, 2 mM ATP (Tris, vanadium-free) and 32 nM [^3H]-ouabain (19.5 Ci/mmol). […] The filters were washed two times with 3 ml volumes of the same Tris buffer, dried and assayed for radioactivity in a Packard liquid scintillation counter at a counting efficiency of approximately 50%. Specific binding was calculated by subtracting the binding observed in the presence of 100 µM unlabeled ouabain from that observed in the absence of unlabeled ouabain. […] Inhibition of Na, K-ATPase activity: • Na,K-ATPase activity in rat brain microsomal fraction was determined as previously described (Lichtstein D., et al., Life Sci. 38: 1261-1270 (1986)). […]

## CCCC=CC(O)CC(O)CCCCCCCCCC(=O)O (single isomer, unassigned) [DLC-II, 11,13-dihydroxy-14-octadecaenoic acid]
Na,K-ATPase [1]; amount 1 (arbitrary units)
  Na+, K+-ATPase activity (% of control): 90 % of control
Na,K-ATPase [1]; amount 2 (arbitrary units)
  Na+, K+-ATPase activity (% of control): 67 % of control
Na,K-ATPase [1]; amount 3 (arbitrary units)
  Na+, K+-ATPase activity (% of control): 71 % of control
Na,K-ATPase [1]; amount 5 (arbitrary units)
  Na+, K+-ATPase activity (% of control): 51 % of control
Na,K-ATPase [1]; amount 8 (arbitrary units)
  Na+, K+-ATPase activity (% of control): 10 % of control
Na,K-ATPase [2]
  inhibition of [^3H]-ouabain binding: inhibit [^3H]-ouabain binding in a dose dependent mode
